Measured values published in US8841285B2, “Potent immunosuppressive agents, derivatives and uses” (priority 2002, dated 2014).

Experiments:
[1] = tested on: EMCV IRES mediated initiation; assay: in vitro translation in RRL, EMCV IRES cistron; type: biochemical, rabbit; conditions: EMCV IRES bicistronic reporter
Description: In vitro Translation and Transcription. pSP/(CAG)33/FF/HCV/Ren·pA51 and pKS/FF/EMC/Ren were linearized by BamHI, then purified by phenol:chloroform extraction and ethanol precipitation, and dissolved in water. pSP/(CAG)33/FF/HCV/Ren·A51 and pKS/FF/EMC/Ren were individually transcribed using a large scale RNA production system in the presence of m7Gppp cap analog followed by incubation with DNase as described by the manufacturer. Resulting RNA was purified using a kit as described by the manufacturer. Translation was performed using a rabbit reticulocyte lysate system as per instructions. Briefly, 200 ng of purified RNA was combined in a 20 μl reaction containing 10 μl RRL, 0.2 μl each of minus Met and minus Leu amino acid mixtures, 70 mM KCl, 2 mM DTT, 1× translation buffer, and 10 units of RNasin. Compounds or DMSO were added to a final DMSO concentration of 2%. Reactions were incubated at 30° C. for 1.5 h, then 5 μl of the reaction mixture was assayed for luciferase activity as per instructions of luciferas reporter assay system.

HeLa cells = assay: cell proliferation assay, HeLa cells; type: cell-based
Description: Cell Culture and transient overexpression. HeLa, RKO, and 293T cells were cultured in DMEM (10% FBS), and Hela S3 and MCF-7 cells in RPMI1640 (10% FBS) in a water jacket cell culture incubator with 5% CO2. Transient transfection was performed using kit as described by the manufacturer. Ectopic overexpression of indicated proteins was performed using pSG5-myc-STRAP, pSG5-eIF4AI, and pcDNA-Flag-4B(wt)
Cell Proliferation Assay. 1×10^5 of indicated cells in each well of a 96-well plate were treated with indicated compounds for 24 h followed by addition of 0.11 μCi of [^3H]-thymidine (6.7 Ci/mmol) per well for 6 h, followed by harvesting to GF/C filtermats using a cell harvester. Filtermats were air-dried and scintillation counted. IC50s were determined from quadruplicate data readings and curve-fitting analysis.

[2] = tested on: mixed lymphocyte reaction; conditions: read-out: IC50 in MLR (mixed lymphocyte reaction) assay; cited from earlier work
293T cells = assay: cellular polyribosome profiles; type: cell-based; conditions: 30 min treatment
Description: Cellular polyribosome profiles. 293T cells were treated as indicated for 30 min. Cells were washed twice with ice-cold PBS and pipetted for 5 min in 500 μl of chilled TMK100 buffer (20 mM Tris-HCl pH 7.4, 5 mM MgCl2 100 mM KCl, 2 mM DTT, 1% Triton X-100 and 100 U/ml RNAsin in DEPC water). After clearing at 10,000×g (10 min) at 4° C., the supernatant (S10) was layered onto 11 ml, 15-45% linear sucrose gradient containing 20 mM HEPES pH 7.4, 100 mM KCl, 5 mM MgCl2 and 2 mM DTT. Ultracentrifugation at 40,000 rpm for 1.5 h at 4° C. was performed in a suitable rotor. Fractions were collected from the top of the gradient by injection of Flurinert FC-40 from bottom of centrifuge tube. Gradient profiles were monitored at 254 nm. For immunoblotting, 7 mg of total protein were processed as described above, followed by collection of 500 μl fractions were collected from the top. 100 μl aliquots of each were boiled in SDS sample buffer, followed by SDS-PAGE and immunoblotting.

CC(/C=C/C(C)=C/[C@@H]1Cc2nc(cs2)[C@@H](C)C[C@@H](N)CC(=O)O[C@@H](C)C/C(C)=C/C=C\C(=O)O1)=C\CN(C)C [Pat A (1), Pateamine A]
IC50 [1]: ~54 nM | reversibility of antiproliferative effect (HeLa cells; HeLa cells (FIG. 13)): irreversible | sensitivity on overexpression of STRAP (HeLa cells; HeLa cells overexpressing STRAP): did not alter sensitivity | increase in IC50 on overexpression of eIF4AI (HeLa cells; HeLa cells overexpressing eIF4AI vs empty vector): 5 fold | IC50 [2]: 2.6 nM | effect on polysome profile (293T cells): depletion of polysomes
